Measured values as given in publication doi:10.1101/2020.07.01.182642v1 (biorxiv, 2020).
Blank lines part the entries; values can stand above or below the compound they belong to.

Key:
Conditions in all cases: binder
[1] = target: STK16 (Homo sapiens, UniProt O75716)
[2] = target: CDK2 (Homo sapiens, UniProt P24941)
[3] = target: T1, TTK (Homo sapiens, UniProt P33981)
T1 sequence (P33981 1-857): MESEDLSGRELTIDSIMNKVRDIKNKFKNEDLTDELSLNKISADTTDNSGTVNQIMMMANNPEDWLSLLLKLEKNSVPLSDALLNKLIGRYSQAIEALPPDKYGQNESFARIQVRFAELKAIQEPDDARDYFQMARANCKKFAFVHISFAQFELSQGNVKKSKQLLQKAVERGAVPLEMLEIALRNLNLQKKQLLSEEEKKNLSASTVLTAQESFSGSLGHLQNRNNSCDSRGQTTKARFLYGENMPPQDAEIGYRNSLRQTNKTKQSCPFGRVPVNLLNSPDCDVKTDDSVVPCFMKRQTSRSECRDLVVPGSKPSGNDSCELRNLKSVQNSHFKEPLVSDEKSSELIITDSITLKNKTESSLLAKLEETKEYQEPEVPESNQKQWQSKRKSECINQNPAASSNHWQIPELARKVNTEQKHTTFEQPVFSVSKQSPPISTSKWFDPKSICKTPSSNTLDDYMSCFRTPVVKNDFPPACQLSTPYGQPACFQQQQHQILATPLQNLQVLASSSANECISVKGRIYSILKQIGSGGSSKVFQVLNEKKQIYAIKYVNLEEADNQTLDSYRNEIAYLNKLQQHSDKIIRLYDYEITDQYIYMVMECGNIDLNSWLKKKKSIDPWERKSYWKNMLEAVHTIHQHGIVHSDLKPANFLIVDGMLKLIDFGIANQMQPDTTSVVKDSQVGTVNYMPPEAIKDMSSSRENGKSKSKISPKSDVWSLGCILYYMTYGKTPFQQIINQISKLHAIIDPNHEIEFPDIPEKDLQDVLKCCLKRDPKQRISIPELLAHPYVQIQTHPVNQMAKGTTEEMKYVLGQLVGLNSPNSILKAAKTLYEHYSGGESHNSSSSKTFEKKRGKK

[4] = target: T2, PHKG2 (Homo sapiens, UniProt P15735)
T2 sequence (P15735 1-406): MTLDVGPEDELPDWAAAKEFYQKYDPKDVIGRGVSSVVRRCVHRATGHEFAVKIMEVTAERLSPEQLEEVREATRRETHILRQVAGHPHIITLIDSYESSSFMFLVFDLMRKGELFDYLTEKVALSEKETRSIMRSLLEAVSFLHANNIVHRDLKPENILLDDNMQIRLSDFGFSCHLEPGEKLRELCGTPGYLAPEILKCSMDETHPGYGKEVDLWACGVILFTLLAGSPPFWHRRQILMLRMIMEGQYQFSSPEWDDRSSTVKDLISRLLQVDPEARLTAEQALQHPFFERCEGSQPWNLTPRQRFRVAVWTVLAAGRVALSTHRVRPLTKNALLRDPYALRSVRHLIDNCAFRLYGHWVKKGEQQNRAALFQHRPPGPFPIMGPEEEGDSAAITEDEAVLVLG

[5] = target: T3, PLK4 (Homo sapiens, UniProt O00444)
T3 sequence (O00444 1-970): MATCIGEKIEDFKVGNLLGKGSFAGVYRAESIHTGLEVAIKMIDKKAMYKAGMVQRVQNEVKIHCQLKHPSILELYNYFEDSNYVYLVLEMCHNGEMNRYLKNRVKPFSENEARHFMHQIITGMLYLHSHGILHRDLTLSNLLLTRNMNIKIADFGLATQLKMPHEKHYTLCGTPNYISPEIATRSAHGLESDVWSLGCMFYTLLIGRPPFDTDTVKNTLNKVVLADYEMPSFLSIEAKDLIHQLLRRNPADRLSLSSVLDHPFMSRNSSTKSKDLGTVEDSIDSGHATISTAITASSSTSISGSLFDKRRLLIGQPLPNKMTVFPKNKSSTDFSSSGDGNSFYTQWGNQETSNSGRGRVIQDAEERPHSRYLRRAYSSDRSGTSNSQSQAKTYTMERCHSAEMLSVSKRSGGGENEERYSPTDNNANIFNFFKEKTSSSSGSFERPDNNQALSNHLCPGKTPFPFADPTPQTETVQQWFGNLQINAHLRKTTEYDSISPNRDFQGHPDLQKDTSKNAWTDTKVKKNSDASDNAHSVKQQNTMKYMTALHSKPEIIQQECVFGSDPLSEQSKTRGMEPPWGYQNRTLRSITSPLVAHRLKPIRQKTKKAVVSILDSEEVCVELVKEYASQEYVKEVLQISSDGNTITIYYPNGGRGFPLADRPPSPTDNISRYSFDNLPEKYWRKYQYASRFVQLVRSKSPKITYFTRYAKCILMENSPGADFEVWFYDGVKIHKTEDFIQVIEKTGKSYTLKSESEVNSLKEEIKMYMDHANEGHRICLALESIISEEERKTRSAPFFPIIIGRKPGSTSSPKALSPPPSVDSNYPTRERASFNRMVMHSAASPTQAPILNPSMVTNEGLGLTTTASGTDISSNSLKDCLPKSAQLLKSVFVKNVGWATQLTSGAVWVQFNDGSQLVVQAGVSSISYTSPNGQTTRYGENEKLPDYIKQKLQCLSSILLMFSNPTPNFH

[6] = target: PIM3 (Homo sapiens, UniProt Q86V86)
[7] = target: SLK (Homo sapiens, UniProt Q9H2G2)
Chain of SLK (Q9H2G2 whole entry): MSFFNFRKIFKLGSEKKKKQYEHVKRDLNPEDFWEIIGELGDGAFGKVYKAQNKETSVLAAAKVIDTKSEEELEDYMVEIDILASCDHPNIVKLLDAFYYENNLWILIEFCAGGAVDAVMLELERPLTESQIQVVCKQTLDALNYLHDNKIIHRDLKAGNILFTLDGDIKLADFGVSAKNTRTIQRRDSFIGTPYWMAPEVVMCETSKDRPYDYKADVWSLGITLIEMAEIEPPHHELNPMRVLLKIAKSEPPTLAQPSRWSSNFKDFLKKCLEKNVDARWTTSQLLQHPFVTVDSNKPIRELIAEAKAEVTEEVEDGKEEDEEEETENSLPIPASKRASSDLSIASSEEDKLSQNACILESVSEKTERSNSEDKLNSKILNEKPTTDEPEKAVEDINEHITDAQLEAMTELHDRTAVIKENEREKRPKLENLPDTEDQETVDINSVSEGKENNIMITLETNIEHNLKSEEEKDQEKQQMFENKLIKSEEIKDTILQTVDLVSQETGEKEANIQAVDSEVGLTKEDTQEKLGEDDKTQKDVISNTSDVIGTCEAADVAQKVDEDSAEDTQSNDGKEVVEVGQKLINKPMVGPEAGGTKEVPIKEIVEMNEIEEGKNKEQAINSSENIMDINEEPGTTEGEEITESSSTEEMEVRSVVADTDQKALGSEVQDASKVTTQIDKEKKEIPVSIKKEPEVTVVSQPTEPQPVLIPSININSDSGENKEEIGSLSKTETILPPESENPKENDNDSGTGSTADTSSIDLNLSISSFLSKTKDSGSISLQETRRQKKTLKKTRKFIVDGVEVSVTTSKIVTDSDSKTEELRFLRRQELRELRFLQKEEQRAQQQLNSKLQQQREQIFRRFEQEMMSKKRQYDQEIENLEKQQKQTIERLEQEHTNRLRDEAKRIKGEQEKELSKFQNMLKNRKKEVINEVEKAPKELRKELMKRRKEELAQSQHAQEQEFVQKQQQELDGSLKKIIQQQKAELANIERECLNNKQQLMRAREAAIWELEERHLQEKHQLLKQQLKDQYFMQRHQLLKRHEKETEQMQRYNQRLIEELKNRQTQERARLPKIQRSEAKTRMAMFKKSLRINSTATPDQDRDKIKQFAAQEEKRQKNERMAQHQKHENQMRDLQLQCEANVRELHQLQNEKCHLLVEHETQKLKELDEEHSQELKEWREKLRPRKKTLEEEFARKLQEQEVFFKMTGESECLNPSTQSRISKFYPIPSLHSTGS

[8] = target: PIM2 (Homo sapiens, UniProt Q9P1W9)
Chain of PIM2 (Q9P1W9 whole entry): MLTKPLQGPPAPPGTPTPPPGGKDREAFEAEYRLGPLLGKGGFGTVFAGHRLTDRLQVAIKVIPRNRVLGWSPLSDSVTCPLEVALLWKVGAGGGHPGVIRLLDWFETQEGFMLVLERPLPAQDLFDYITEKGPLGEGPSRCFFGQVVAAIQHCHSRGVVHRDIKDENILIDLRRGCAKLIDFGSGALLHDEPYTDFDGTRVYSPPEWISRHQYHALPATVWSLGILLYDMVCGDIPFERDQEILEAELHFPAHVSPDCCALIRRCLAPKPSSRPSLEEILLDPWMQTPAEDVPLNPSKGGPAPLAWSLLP

Chain of STK16 (O75716 whole entry): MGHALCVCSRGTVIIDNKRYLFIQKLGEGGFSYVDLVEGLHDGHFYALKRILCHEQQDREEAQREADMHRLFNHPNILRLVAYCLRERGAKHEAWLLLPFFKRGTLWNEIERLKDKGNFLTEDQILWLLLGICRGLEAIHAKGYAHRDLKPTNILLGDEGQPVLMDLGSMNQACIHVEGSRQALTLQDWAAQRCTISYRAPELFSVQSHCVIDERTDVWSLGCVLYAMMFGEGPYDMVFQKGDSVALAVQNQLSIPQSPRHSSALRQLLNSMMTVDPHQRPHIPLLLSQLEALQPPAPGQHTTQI

- ΔTm inhibitor 1 [1]: 2.3 °C
- ΔTm inhibitor 1 [2]: 1.5 °C
- ΔTm inhibitor 1 [3]: 2.7 °C
- ΔTm inhibitor 1 [4]: 1.7 °C
- ΔTm inhibitor 1 [5]: 2.6 °C
- ΔTm inhibitor 1 [6]: 6.8 °C
- ΔTm inhibitor 1 [7]: 2.3 °C
- ΔTm inhibitor 1 [8]: 4.7 °C
Structure (SMILES): CC(=O)c1cccc(-c2cnc3ccc(NCC4CC4)nn23)c1 [compound 1, K00135]

- ΔTm inhibitor 2 [1]: 0.2 °C
- ΔTm inhibitor 2 [2]: -0.1 °C
- ΔTm inhibitor 2 [3]: 0.5 °C
- ΔTm inhibitor 2 [4]: 0.2 °C
- ΔTm inhibitor 2 [5]: 0.2 °C
- ΔTm inhibitor 2 [6]: 4.9 °C
- ΔTm inhibitor 2 [7]: -0.5 °C
- ΔTm inhibitor 2 [8]: 3.6 °C
Structure (SMILES): CCN1/C(=C/C(C)=O)Sc2ccc(OC)cc21 [compound 2, TG003]

- ΔTm inhibitor 4 [1]: 3.5 °C
- ΔTm inhibitor 4 [2]: 0.3 °C
- ΔTm inhibitor 4 [3]: 1.7 °C
- ΔTm inhibitor 4 [4]: 1.7 °C
- ΔTm inhibitor 4 [5]: 0.4 °C
- ΔTm inhibitor 4 [6]: 5.4 °C
- ΔTm inhibitor 4 [7]: 0.5 °C
- ΔTm inhibitor 4 [8]: 2.1 °C
Structure (SMILES): Nc1nccc(-c2ccc3noc(-c4ccc(Cl)cc4)c3c2)n1 [compound 4, K00972]
